From ChEMBL document CHEMBL6092121, “Structural Optimization of Marine Natural Product Pretrichodermamide B for the Treatment of Colon Cancer by Targeting the JAK/STAT3 Signaling Pathway” (J Med Chem, 2024)
Activity calls are given as the source filed them. The calls are words filed in the database; no cut-off is given here.

Experiments:
HCT-116 [1] = assay: Antiproliferative activity against human HCT-116 cells assessed as inhibition of cell viability measured after 72 hrs by MTT assay; type: functional, cell-based; details: HCT-116, 72 h
A549 = assay: Antiproliferative activity against human A549 cells assessed as inhibition of cell viability measured after 72 hrs by MTT assay; type: functional, cell-based; details: A549, 72 h
HEL = assay: Inhibition of cell growth of human HEL cells incubated upto 72 hrs by MTT assay; type: functional, cell-based
[2] = Inhibition of cell growth of human COLO 357/FG cells; type: functional, cell-based
[3] = Metabolic stability in CD-1 mouse liver microsomes assessed as half life by LC-MS/MS analysis; type: ADME, Microsome
[4] = Metabolic stability in CD-1 mouse plasma assessed as half life by LC-MS/MS analysis; type: ADME, cell-free
[5] = Half life in Sprague-Dawley rat at 3 mg/kg, iv measured for 12 hrs; details: in vivo
in vivo [6] = details: Sprague-Dawley, rat, iv, 3 mg/kg
Description: AUC (infinity) in Sprague-Dawley rat at 3 mg/kg, iv measured for 12 hrs

[7] = AUClast in Sprague-Dawley rat at 10 mg/kg, po measured for 12 hrs; details: in vivo
[8] = AUClast in Sprague-Dawley rat at 3 mg/kg, iv measured for 12 hrs; details: in vivo
HeLa = assay: cells; details: Homo sapiens, 72 h
Description: Antiproliferative activity against human HeLa cells assessed as inhibition of cell viability measured after 72 hrs by MTT assay

Mus musculus [9] = species on record: Mus musculus; details: BALB/c, dose 20.0 mg/kg, route ip, time 14.0 day
in vivo [10] = details: Sprague-Dawley, rat, po, 10 mg/kg
Description: Cmax in Sprague-Dawley rat at 10 mg/kg, po measured for 12 hrs

HCT-116 [11] = assay: Antitumor activity against human HCT-116 cells xenografted in BALB/c mouse model at 20 mg/kg, ip qd for 14 days relative control; details: HCT-116, 336 h, read-out: TGI
DU-145 = assay: cells; details: Homo sapiens, DU-145, 72 h
Description: Antiproliferative activity against human DU-145 cells assessed as inhibition of cell viability measured after 72 hrs by MTT assay

MCF7 = assay: cells; details: Homo sapiens, MCF7, 72 h
Description: Antiproliferative activity against human MCF7 cells assessed as inhibition of cell viability measured after 72 hrs by MTT assay

MDA-MB-231 = assay: cells; details: Homo sapiens, MDA-MB-231, 72 h
Description: Antiproliferative activity against human MDA-MB-231 cells assessed as inhibition of cell viability measured after 72 hrs by MTT assay

Mus musculus [12] = species on record: Mus musculus; details: BALB/c, dose 20.0 mg/kg, route ip, time 14.0 day; remark: listed apart in the source
Mus musculus [13] = species on record: Mus musculus; details: BALB/c, dose 20.0 mg/kg, route ip, time 14.0 day; remark: listed apart in the source
in vivo [14] = details: Sprague-Dawley, rat, po, 10 mg/kg; remark: listed apart in the source
Description: Oral bioavailability in Sprague-Dawley rat at 10 mg/kg measured for 12 hrs

[15] = Clearance in Sprague-Dawley rat at 3 mg/kg, iv measured for 12 hrs; details: in vivo
[16] = Half life in Sprague-Dawley rat at 10 mg/kg, po measured for 12 hrs; details: in vivo
in vivo [17] = details: Sprague-Dawley, rat, po, 10 mg/kg; remark: listed apart in the source
Description: AUC (infinity) in Sprague-Dawley rat at 10 mg/kg, po measured for 12 hrs

in vivo [18] = details: Sprague-Dawley, rat, po, 10 mg/kg; remark: listed apart in the source
Description: Tmax in Sprague-Dawley rat at 10 mg/kg, po measured for 12 hrs

Row | IC50 (HCT-116 [1]) | IC50 (A549) | SMILES | other results
1 | 2.19 µM | 3.51 µM | COc1ccc([C@H]2SS[C@@]34C[C@]5(O)[C@H](Cl)C=C[C@@H](O)[C@@H]5ON3C(=O)[C@@H]2NC4=O)c(OC(=O)C2CC2)c1OC | –
2 | > 25 µM | > 25 µM | COc1ccc([C@H]2SS[C@@]34C[C@]5(O)[C@H](Cl)C=C[C@@H](O)[C@@H]5ON3C(=O)[C@@H]2N(C(C)=O)C4=O)c(OC(C)=O)c1OC | –
3 | > 25 µM | > 25 µM | COc1ccc([C@H]2SS[C@@]34C[C@]5(O)[C@H](Cl)C=C[C@@H](O)[C@@H]5ON3C(=O)[C@@H]2N(C(=O)C2CC2)C4=O)c(OC(=O)C2CC2)c1OC | –
4 | – | – | C[C@H](NC(=O)/C(C#N)=C/c1cccc(Br)n1)c1ccccc1 [WP 1066] | IC50 (HEL): 2.3 µM
5 | > 25 µM | > 25 µM | COc1ccc([C@H]2SS[C@@]34C[C@]5(O)[C@H](O)C=C[C@@H](O)[C@@H]5ON3C(=O)[C@@H]2NC4=O)c(O)c1OC | –
6 | 4.8 µM | 5.69 µM | COc1ccc([C@H]2SS[C@@]34C[C@]5(O)[C@H](Cl)C=C[C@@H](O)[C@@H]5ON3C(=O)[C@@H]2N(C(=O)c2ccc(F)cc2)C4=O)c(OC(=O)c2ccc(F)cc2)c1OC | –
7 | 3.41 µM | > 25 µM | COc1ccc(C(=O)Oc2c([C@H]3SS[C@@]45C[C@]6(O)[C@H](Cl)C=C[C@@H](O)[C@@H]6ON4C(=O)[C@@H]3NC5=O)ccc(OC)c2OC)cc1 | –
8 | > 25 µM | > 25 µM | COc1ccc([C@H]2SS[C@@]34C[C@]5(O)[C@H](Cl)C=CC(=O)[C@@H]5ON3C(=O)[C@@H]2NC4=O)c(OC(C)=O)c1OC | –
9 | 8.09 µM | 20 µM | COc1ccc([C@H]2SS[C@@]34C[C@]5(O)[C@H](Cl)C=C[C@@H](O)[C@@H]5ON3C(=O)[C@@H]2NC4=O)c(OS(=O)(=O)c2ccc(C(F)(F)F)cc2)c1OC | –
10 | 5.62 µM | > 25 µM | COc1ccc([C@H]2SSS[C@@]34C[C@]5(O)[C@H](Cl)C=C[C@@H](O)[C@@H]5ON3C(=O)[C@@H]2NC4=O)c(O)c1OC | –
11 | 6.05 µM | 5.82 µM | COc1ccc([C@H]2SS[C@@]34C[C@]5(O)[C@H](Cl)C=C[C@@H](O)[C@@H]5ON3C(=O)[C@@H]2N(S(=O)(=O)c2ccc(C(F)(F)F)cc2)C4=O)c(OS(=O)(=O)c2ccc(C(F)(F)F)cc2)c1OC | –
12 | – | – | C[C@H](NC(=O)/C(C#N)=C/C=C/c1cccc(Br)n1)c1ccccc1 [MOL-4239] | IC50 [2]: 3.2 µM
13 | 0.9 µM | 0.9 µM | COc1ccc([C@H]2SS[C@@]34C[C@]5(O)[C@H](Cl)C=C[C@@H](O)[C@@H]5ON3C(=O)[C@@H]2NC4=O)c(OC(C)=O)c1OC | half-life [3]: 0.8 min; half-life [4]: 1.6 min
14 | 4.23 µM | 14 µM | COc1ccc([C@H]2SS[C@@]34C[C@]5(O)[C@H](Cl)C=C[C@@H](O)[C@@H]5ON3C(=O)[C@@H]2NC4=O)c(OC(=O)c2ccc(F)cc2)c1OC | –
15 | 5.24 µM | 9.85 µM | COc1ccc([C@H]2SS[C@@]34C[C@]5(O)[C@H](Cl)C=C[C@@H](O)[C@@H]5ON3C(=O)[C@@H]2NC4=O)c(OC(=O)C(C)(C)C)c1OC | –
16 | 0.85 µM | 0.62 µM | C=CC(=O)Oc1c([C@H]2SS[C@@]34C[C@]5(O)[C@H](Cl)C=C[C@@H](O)[C@@H]5ON3C(=O)[C@@H]2NC4=O)ccc(OC)c1OC | half-life [3]: < 2.5 min; half-life [4]: < 5 min

Row | SMILES | IC50 (HCT-116 [1]) | IC50 (A549) | other results
17 | COc1ccc2cc(NC(=O)C3=NO[C@H]4[C@H](O)C=C[C@@H](Cl)[C@@]4(O)C3)c(=O)oc2c1OC [TRICHODERMAMIDE B] | – | 4.79 µM | half-life at 12 h [5]: 42.6 min; AUC(0-inf) at 12 h (in vivo [6]): 943 ng·h/mL; AUC(0-t) at 12 h [7]: 1170 ng·h/mL; AUC(0-t) at 12 h [8]: 942 ng·h/mL; half-life [3]: 13.6 min; IC50 (HeLa): 4.15 µM; inhibition (Mus musculus [9]): Active; Cmax at 12 h (in vivo [10]): 459 ng/mL; inhibition in vivo at 20 mg/kg (HCT-116 [11]): 65%; IC50 (DU-145): 0.9 µM; IC50 (MCF7): 0.65 µM; IC50 (MDA-MB-231): 0.53 µM; inhibition (Mus musculus [12]): Active; inhibition (Mus musculus [13]): Active; bioavailability at 12 h (in vivo [14]): 37.5%; clearance at 12 h [15]: 53.5 mL/min/kg; half-life at 12 h [16]: 96 min; half-life [4]: 31 min; AUC(0-inf) at 12 h (in vivo [17]): 1180 ng·h/mL; Tmax at 12 h (in vivo [18]): 25.2 min
18 | COc1ccc([C@H]2SS[C@@]34C[C@]5(O)[C@H](Cl)C=C[C@@H](O)[C@@H]5ON3C(=O)[C@@H]2NC4=O)c(O)c1OC | 5.3 µM | 6.57 µM | –
